Laboratory results as given in US11752155B2, “Treatment of autism spectrum disorders, obsessive-compulsive disorder and anxiety disorders” (Rugen Holdings (Cayman) Limited, priority 2016, dated 2023).
Structures can show the parent of a compound that is named as a salt. Where two headings read alike, the source gives them in different places.

Columns and labels:
[1] = target: human NR1/NR2A (Homo sapiens (Human), UniProt Q05586+Q12879); assay: NR2A antagonist activity: calcium influx (Fluo-4) assay in HEK293 cells; type: cell-based
Method: Activation of the NR2A or NR2B subtype of NMDA receptor with glutamate as an agonist and glycine co-agonist on these cells results in calcium influx, which can be monitored with fluorescent indicator Fluo-4.
For experiments, the cells were seeded onto poly-D-lysine-coated 96-well black plates with clear bottom (Corning) at a density of ˜50,000 cells/well. After overnight culture, the growth medium was removed from the wells and the cells were incubated at 37° C. for 60 minutes in Hanks buffer containing 4 μM fluo-4-AM (Invitrogen) and 0.1% bovine serum albumin (BSA). After dye-loading, the cells were washed three times with Hanks buffer and incubated for 10 minutes at room temperature with various concentrations of test compounds prepared in Hanks buffer with 0.1% BSA. The cell plates were placed onto an FDSS Cell fluorescence reader (Hamamatsu). After 20 seconds of reading background fluorescence, agonist glutamate at final 100 µM and co-agonist glycine at final 50 μM were added to the cells to activate the receptor, and the resulting fluorescence changes were recorded and quantified. Based on the changes in fluorescence intensity, the pharmacological effect of test compounds was analyzed and the IC50 values derived from a non-linear least squares fitting of the concentration-dependent response to a standard logistic equation using Prism (Graphpad Software, Inc.): Amplitude=Max Amplitude/(1+(IC50/[antagonist])^n).

[2] = target: CYP2D6 (Homo sapiens (Human), UniProt P10635); assay: CYP P450 enzyme inhibition in pooled human liver microsomes (dextromethorphan probe); type: in vitro ADME; settings: for inhibition at 10 min, 10 µM: human, pooled human liver microsomes, pH 7.4, probe dextromethorphan, 5 μM, read-out: CYP2D6 Inhibiton at 10 μM
Method: Test compound concentration-dependent response studies were performed in triplicate.

[3] = target: human NR1/NR2B (Homo sapiens (Human), UniProt Q05586+Q13224); assay: NR2B antagonist activity: calcium influx (Fluo-4) assay in HEK293 cells; type: cell-based; settings: read-out: NR2B IC50
In short: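 HEK293 cells expressing NR1/NR2A or NR1/NR2B, loaded with fluo-4-AM, preincubated 10 min at room temperature with compound in Hanks buffer/0.1% BSA.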

[4] = target: hERG channel (Homo sapiens (Human), UniProt Q12809); assay: hERG channel inhibition, whole cell patch clamp in HEK293 cells; type: cell-based; settings: for inhibition at 5 min, 10 µM: human, HEK293 cells stably expressing hERG channel, pH 7.35
Method: The assay was performed on hERG channel stably expressed in HEK293 cells. The cells were cultured at 37° C. in a humidified CO2 incubator in the growth medium consisting of DMEM, 10% fetal bovine serum and antibiotics. Prior to the assay, the cells were seeded onto a 12-mm PDL-coated glass coverslip and cultured in a 35-mm Petri dish. After 16 to 40 hours culture, the coverslip was transferred into the chamber of OctaFlow perfusion system (ALA Instrument) and under a constant flow of extracellular solution (140 mM NaCl, 4 mM KCl, 1 mM MgCl2, 2 mM CaCl2, 10 mM HEPES, 10 mM D-glucose, pH 7.35, osmolarity 290). Whole cell patch clamping was performed with a glass micropipette filled with intracellular solution (120 mM KCl, 1.75 mM MgCl2, 5.4 mM CaCl2, 10 mM HEPES, 10 mM EGTA, and 4 mM ATP-K2, pH 7.2, osmolarity 310). Giga-seal was maintained during the test. The voltage control and current measurement were carried out using Axon amplifier 700B, Digidata 1440A and CLAMPEX10 software (Molecular Devices). Whole-cell hERG currents were recorded following the Petroski protocol: the cell was held at −80 mV, and the voltage step jumped from −80 to 30 mV and stay for 2 seconds with a 20-millisecond prepulse at −40 mV. After depolarization, the voltage was decreased to −40 mV and stay for 2 seconds, and returned back to −80 mV. Test compound was applied by quartz capillary tubes tip (200 m inner diameter), and the flow rate was controlled at 2-3 mL/min with OctaFlow perfusion system. Different concentrations of the compound were applied to the cells for 5 minutes and the hERG current was measured three times before, during and after compound treatment. The data were analyzed using Clampfit 10 software (Molecular Devices) to generate IC50 values.

[5] = system: Sapap3 knockout mice; assay: Grooming Test in Sapap3 knockout mice; type: in vivo, mouse
Method: (§1) Animals. The breeding conditions and genotyping methods for Sapap3 and Shank3 complete knockout mice were the same as described in Welch et al. (Nature 2007, 448(7156):894-900) and in Wang et al. (Nat. Commun. 2016, 7:11459), respectively. Homozygous knockout mice and littermate wild type mice of both genders were used at 4 to 8 weeks of age.
(§2) Compound formulation. The test compounds were dissolved in a small volume of dimethyl sulfoxide (DMSO) and diluted in an aqueous solution of 2-hydroxypropyl-beta-cyclodextrin (HP-β-CD) and administered IP. Dosing volume was 10 mL/kg. At 20 minutes after dosing, the mice were subjected to the behavioral test as described below.
(§3) Testing room and apparatus. The test room was maintained under the same conditions as the colony rooms, except the mice were housed in conventional shoe-box cages with food, water, and nesting materials. Animals were housed in the test room 48-72 hours prior to testing, in order to permit the mice to fully acclimate to the test room and conventional housing cages before testing. Tests were conducted in white polyvinyl-fluoride hard-sided foam test arenas (20×20×12 cm). The arenas were indirectly illuminated by dimmable LED light bars placed level with the arena floor and 30 cm away from the external wall of the test arena. This permitted the internal area of the arena to be evenly illuminated at approximately 40 lux. The illumination levels where the mice were housed before testing were about 80-100 lux.
(§4) Testing procedure. Mice were carefully placed into the test arenas 20 minutes after compound administration. Animals were given free exploration of the arena for 10 minutes, after which they were gently sprayed with 4 quick pumps of a water mist (total water volume approximated 1.5-1.7 mL). Mice were then allowed an additional 10 minutes to self-groom and engage in other behaviors before being removed from the arena. All tests were videotaped using cameras mounted above the testing arena and were saved to digital media format using Noldus Media Player software (Noldus Information Technologies, Leesburg, Va.). The mice were only tested once in the acute studies and were repeatedly tested in the sustained effect studies.
(§5) Quantitation of grooming bouts. Analyses of the video recordings were conducted with TopScan behavioral recognition software (Cleversys Inc, Reston, Va.). Configurations were made which scored time spent in grooming. […] These settings permitted automated scoring of grooming by TopScan that corresponded well to manual-scoring of these behaviors by a trained blinded observer using Noldus Observer XT9 (Noldus Information Technologies), with an average corrected kappa of 0.925 (range 0.807-0.983).
(§6) Statistical analyses. Data are presented as means and standard error of the means (SEMs). Analyses were conducted using SPSS 23 (IBM SPSS Statistics, Chicago, Ill.). Time spent in grooming behavior (seconds) over the 10-minute pre- and post-spray time blocks were analyzed with repeated measures analyses of variance (RMANOVA). The pre- and post-spray times were used for the within subject effects and the genotype and compound treatment condition were used as the between subject effects. In sustained effect studies, days were also used for a within subject effect. Some analyses of total groom time were performed in Prism 7.01 (GraphPad Software, La Jolla, Calif.), with one-way ANOVAs to compare genotypes on Day 1 or with RMANOVAs to compare treatment groups within the same genotype across days. Treatments with compounds were compared independently with the vehicle. All post-hoc comparisons were performed with Bonferroni corrections for multiple comparisons to avoid a Type I error. In all cases, a p<0.05 was considered significant.
Next, the effect of two subunit-selective NR2B antagonists administered as a single IP dose and assessed 20 minutes postdose was studied in the Sapap3 knockout mice (n=6-10 mice per treatment group). […]

[6] = system: wild type mice (male NMRI); assay: Marble Burying Test in wild type mice; type: in vivo, mouse; settings: Mus musculus, ip, read-out: Percent Change in marbles buried relative to vehicle
In short: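 Male NMRI mice, 12 per group, received compound in 0.5% DMSO/4% HP-β-CD PO or IP 20 min before test. Marbles (25) buried two-thirds or more in sawdust were counted over a blind 30-min session. Groups were compared with vehicle by Kruskal-Wallis then Mann-Whitney U.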

[7] = system: wild type littermate mice; assay: Grooming Test in wild type littermates of Sapap3 and Shank3 complete knockout mice; type: in vivo, mouse
Method: as §1, §2, §3, §4, §5, §6
The wild type littermates of the Sapap3 knockout and Shank3 complete knockout mice were retested after Day 1 compound administration to determine whether the sustained effects were unique to the knockout mice. […]

[8] = single subcutaneous administration, highest dose tested; cited from earlier work
[9] = after 8 weeks of treatment; cited from earlier work
[10] = 18 patients, 6-19 years of age; cited from earlier work
[11] = Table 1.1B, read-out: NR2A IC50

Chain of human NR1/NR2A (Q12879 23-1464, other chains not shown): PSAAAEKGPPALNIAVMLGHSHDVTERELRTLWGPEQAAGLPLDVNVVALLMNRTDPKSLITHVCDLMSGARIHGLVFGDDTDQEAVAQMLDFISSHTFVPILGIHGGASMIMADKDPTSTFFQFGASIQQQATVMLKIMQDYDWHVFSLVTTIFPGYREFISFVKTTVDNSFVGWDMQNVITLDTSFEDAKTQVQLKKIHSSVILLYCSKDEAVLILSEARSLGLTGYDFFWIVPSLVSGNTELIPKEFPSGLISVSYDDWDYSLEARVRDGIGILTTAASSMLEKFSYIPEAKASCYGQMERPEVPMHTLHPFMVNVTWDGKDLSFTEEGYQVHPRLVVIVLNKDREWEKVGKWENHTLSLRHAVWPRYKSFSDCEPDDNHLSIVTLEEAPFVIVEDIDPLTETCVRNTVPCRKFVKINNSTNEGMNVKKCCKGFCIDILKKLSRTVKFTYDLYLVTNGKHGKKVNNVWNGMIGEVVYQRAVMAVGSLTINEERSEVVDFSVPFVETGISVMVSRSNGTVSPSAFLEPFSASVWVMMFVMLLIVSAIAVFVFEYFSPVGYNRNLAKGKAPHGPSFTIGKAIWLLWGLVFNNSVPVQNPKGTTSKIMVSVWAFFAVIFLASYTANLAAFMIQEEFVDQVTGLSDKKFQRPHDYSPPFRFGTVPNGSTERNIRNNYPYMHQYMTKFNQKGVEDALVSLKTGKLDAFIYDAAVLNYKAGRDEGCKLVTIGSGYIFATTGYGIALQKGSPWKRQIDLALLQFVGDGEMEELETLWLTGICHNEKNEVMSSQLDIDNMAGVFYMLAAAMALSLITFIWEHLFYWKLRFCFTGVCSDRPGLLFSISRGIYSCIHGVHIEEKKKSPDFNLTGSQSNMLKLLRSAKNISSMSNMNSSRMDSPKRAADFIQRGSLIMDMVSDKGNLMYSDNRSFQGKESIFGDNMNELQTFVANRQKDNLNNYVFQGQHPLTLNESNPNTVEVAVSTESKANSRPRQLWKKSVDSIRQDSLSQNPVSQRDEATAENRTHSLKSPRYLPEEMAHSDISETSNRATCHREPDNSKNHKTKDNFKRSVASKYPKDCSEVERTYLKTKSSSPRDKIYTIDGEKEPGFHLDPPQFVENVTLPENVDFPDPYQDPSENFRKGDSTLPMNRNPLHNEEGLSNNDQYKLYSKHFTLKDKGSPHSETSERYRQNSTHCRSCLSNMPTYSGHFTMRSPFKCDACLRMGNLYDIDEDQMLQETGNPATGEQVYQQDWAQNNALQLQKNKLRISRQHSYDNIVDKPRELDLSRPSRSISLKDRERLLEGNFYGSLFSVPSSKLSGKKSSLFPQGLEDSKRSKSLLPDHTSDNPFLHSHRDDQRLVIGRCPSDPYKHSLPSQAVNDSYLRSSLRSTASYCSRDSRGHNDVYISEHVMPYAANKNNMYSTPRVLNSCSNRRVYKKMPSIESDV
Chain of human NR1/NR2B (Q13224 27-1484, other chains not shown): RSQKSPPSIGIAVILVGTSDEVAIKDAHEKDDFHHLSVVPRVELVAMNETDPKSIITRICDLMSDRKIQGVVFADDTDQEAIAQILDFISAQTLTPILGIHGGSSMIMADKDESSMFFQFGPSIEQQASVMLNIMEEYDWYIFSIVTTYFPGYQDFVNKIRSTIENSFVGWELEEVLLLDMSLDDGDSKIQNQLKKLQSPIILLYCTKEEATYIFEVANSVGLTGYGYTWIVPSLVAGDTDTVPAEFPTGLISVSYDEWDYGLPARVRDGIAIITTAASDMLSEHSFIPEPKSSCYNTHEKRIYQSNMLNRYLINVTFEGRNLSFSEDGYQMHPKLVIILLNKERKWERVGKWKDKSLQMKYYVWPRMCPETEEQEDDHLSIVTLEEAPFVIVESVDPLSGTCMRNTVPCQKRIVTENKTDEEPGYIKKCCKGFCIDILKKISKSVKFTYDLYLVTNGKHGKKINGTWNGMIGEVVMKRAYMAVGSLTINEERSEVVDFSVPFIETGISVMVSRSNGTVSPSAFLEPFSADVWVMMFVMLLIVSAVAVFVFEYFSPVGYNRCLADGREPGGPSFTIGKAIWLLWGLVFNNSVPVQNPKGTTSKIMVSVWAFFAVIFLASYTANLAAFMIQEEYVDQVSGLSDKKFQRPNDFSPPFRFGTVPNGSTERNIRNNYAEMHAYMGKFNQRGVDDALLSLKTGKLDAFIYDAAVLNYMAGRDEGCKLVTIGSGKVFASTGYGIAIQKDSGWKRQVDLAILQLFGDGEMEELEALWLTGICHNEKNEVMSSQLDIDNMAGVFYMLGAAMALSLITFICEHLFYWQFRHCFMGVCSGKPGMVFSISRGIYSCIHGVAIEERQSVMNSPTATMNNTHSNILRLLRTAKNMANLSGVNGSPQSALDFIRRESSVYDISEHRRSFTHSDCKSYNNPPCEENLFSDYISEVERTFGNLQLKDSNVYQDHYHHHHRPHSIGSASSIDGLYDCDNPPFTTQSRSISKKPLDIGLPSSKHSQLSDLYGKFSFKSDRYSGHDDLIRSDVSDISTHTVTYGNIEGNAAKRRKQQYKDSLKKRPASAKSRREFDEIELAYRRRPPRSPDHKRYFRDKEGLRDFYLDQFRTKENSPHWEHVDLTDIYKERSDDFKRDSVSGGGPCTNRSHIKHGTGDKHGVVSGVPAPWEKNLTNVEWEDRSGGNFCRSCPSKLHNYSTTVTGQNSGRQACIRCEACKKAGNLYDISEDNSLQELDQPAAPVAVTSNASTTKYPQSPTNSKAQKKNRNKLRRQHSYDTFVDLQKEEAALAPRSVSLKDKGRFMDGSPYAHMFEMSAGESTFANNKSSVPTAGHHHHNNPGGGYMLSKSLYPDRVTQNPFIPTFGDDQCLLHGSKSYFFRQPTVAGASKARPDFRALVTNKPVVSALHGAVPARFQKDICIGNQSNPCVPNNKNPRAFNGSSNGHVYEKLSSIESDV
Chain of hERG channel (Q12809 whole entry): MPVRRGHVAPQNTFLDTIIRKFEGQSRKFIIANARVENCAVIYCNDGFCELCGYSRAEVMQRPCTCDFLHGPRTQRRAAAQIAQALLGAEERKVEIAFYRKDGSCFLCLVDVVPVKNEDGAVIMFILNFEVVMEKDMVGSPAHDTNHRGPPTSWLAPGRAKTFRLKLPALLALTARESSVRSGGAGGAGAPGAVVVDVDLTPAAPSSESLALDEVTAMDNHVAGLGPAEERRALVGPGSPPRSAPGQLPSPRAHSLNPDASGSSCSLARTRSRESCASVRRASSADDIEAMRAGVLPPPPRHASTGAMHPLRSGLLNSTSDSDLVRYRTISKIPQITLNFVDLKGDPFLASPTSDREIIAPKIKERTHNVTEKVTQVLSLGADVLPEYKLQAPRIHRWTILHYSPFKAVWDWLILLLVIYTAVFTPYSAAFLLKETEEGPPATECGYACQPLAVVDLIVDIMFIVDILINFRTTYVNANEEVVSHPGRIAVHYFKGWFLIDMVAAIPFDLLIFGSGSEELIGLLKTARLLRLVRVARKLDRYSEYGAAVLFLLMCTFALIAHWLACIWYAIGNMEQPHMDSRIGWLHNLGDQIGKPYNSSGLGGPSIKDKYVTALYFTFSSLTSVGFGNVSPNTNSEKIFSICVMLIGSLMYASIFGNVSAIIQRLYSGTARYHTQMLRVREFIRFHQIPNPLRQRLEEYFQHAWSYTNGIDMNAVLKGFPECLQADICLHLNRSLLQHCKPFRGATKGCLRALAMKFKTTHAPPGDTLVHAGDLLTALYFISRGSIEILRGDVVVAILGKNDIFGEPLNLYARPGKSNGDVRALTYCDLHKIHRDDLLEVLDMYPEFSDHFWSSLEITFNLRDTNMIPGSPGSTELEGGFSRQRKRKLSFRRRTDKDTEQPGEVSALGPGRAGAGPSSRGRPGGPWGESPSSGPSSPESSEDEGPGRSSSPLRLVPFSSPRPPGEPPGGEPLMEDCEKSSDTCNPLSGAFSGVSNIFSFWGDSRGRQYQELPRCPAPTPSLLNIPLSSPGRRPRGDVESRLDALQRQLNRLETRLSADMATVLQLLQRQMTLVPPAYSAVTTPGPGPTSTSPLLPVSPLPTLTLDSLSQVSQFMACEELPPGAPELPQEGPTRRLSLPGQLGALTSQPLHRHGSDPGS
Chain of CYP2D6 (P10635 whole entry): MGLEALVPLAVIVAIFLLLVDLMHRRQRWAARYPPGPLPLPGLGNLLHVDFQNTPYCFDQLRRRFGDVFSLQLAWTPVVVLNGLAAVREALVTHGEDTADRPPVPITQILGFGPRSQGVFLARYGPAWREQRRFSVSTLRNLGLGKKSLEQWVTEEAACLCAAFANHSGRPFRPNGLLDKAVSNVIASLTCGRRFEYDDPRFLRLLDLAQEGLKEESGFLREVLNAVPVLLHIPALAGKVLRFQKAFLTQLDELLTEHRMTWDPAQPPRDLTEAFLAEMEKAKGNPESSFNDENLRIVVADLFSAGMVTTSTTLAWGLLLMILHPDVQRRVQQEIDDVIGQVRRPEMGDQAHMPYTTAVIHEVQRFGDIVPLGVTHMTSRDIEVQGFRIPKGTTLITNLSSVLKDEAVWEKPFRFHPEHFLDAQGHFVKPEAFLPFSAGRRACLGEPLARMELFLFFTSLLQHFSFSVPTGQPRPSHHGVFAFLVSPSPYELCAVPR

## FC(F)(CN1CCC(Nc2ncnc3[nH]ccc23)CC1)c1ccccn1 [C-1^A′]
[1]
  IC50: > 10 µM

## CCc1ccc(COC(=O)N2CC[C@H](CNc3nccn4cnnc34)C(F)(F)C2)cc1 [E1-1.5^B′]
[2]
  inhibition at 10 min, 10 µM: 28%
[3]; Table 1.1B
  IC50: 0.0096 µM
[3]; Table 1.3B
  IC50: 0.0096 µM
[3]; Table 1.4B
  IC50: 0.0096 µM
[1]; [11]
  IC50: > 10 µM
[4]
  inhibition at 5 min, 10 µM: 46%

## Cc1ccc(COC(=O)N2CC[C@H](CNc3ncc4cn[nH]c4n3)C(F)(F)C2)cc1 [E1-8.2^B′]
[2]
  inhibition at 10 min, 10 µM: 83%
[1]; [11]
  IC50: > 10 µM
[4]
  inhibition at 5 min, 10 µM: 57%

## Cc1ccc(COC(=O)N2CC[C@H](CNc3nc4ccccn4n3)C(F)(F)C2)cc1 [E1-9.2^B′]
[2]
  inhibition at 10 min, 10 µM: 14%
[1]; [11]
  IC50: > 10 µM
[4]
  inhibition at 5 min, 10 µM: 38%

## O=C(OCc1ccc(C(F)F)cc1)N1CC[C@H](CNc2ncccn2)C(F)(F)C1 [E1-22.6^B′, (R)-4-(difluoromethyl)benzyl 3,3-difluoro-4-((pyrimidin-2-ylamino)methyl)piperidine-1-carboxylate mesylate]
[2]; Table 1.4B
  IC50: 41 µM
[5]; first dose 3 mg/kg IP on Day 1
  significantly reduced grooming through Day: 15 days
[5]; single IP dose, 20 min postdose, Day 1
  acute effect on excessive self-grooming: significantly reduced grooming
[5]; single dose 1 mg/kg IP on Day 1
  significantly reduced grooming through Day: 15 days
[6]; 0.1 mg/kg
  change in vivo at 0.1 mg/kg: -30%
[6]; 0.3 mg/kg
  change in vivo at 0.3 mg/kg: -95%
[6]; 3 mg/kg
  change in vivo at 3 mg/kg: -98%
[6]; 10 mg/kg
  change in vivo at 10 mg/kg: -100%
[7]; 1 mg/kg IP on Day 1, wild type littermates
  effect on grooming on Day 3: did not show an effect
[7]; 1 mg/kg IP, wild type littermates
  effect on grooming on Day 1: significant reduction in grooming
[7]; 3 mg/kg IP on Day 1, wild type littermates
  effect on grooming on Day 5: significantly increased grooming
[7]; 3 mg/kg IP on Day 1, wild type littermates, mesylate
  effect on grooming on Day 3: significantly reduced grooming
[7]; wild type littermates of Sapap3 knockout mice, dose-dependent
  acute effect on grooming on Day 1: significantly reduced grooming
[4]; Table 1.3B
  IC50: 7.3 µM

## C[C@@H](CN1CCC(Cc2ccccc2)CC1)[C@@H](O)c1ccc(O)cc1 [Ro25-6981]
[8]
  efficacy in the Marble Burying Test: modest efficacy

## CC12CC3CC(C)(C1)CC(N)(C3)C2 [memantine]
[9]
  remission: 89%
  response: 100%
[10]
  patients who developed adverse effects: seven out of 18
